Reference: patent publication US7399731B2, “Electrically conductive non-aqueous wellbore fluid” (M-I L.L.C., priority 2001, dated 2008)

Test: Electrical conductivity of solutions of the organic salts in non-aqueous solvents
Type: physicochemical
Description: A variety of metal carboxylates were prepared in heptane by reacting versatic acid and 2-ethyl hexanoic acid directly with the metal of choice or with a metal base such as the hydride or hydroxide. Lithium, sodium, potassium, rubidium, calcium and gadolinium systems were synthesised.
A 1 molar solution of potassium bis(2-ethylhexyl) phosphate in Brij 30 was then prepared by dissolving 18.02 grams of the salt in 47.5 grams (50 ml) of the solubilising agent.
A 1 molar solution of AOT (Aldrich Chemicals) in Brij 30 was prepared by dissolving 22.23 grams of AOT in 47.5 grams (50 ml) of Brij 30.
The final AOT/neopentyl glycol/Brij 30 solution of FIG. 10 (i.e. 1 molar AOT and 2 molar neopentyl glycol in Brij 30) was then diluted with successive amounts of mineral spirits and the conductivity measured at each addition.

[1] = 1 molar salt and 2 molar neopentyl glycol in Brij 30, diluted: 20% solution, 80% mineral spirits by volume

CCCCC(CC)COC(=O)CC(C(=O)OCC(CC)CCCC)S(=O)(=O)O.[Na] (centres unmarked) [AOT, sodium salt of bis(2-ethylhexyl) sulfosuccinate]
conductivity (1 molar in Brij 30 with 2.0 molar neopentyl glycol, 25° C.): 33.5 ìS/cm | conductivity [1]: 1.5 ìS/cm | conductivity (1 molar solution in Brij 30): 15.7 ìS/cm

CCCCC(CC)COP(=O)([O-])OCC(CC)CCCC.[K+] (centres unmarked) [potassium bis(2-ethylhexyl) phosphate]
conductivity [1]: 3.2 ìS/cm | conductivity (1 molar solution in Brij 30): 45.5 ìS/cm
